# PubChem BioAssay (NCI)
#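 96-well plates; 48 h exposure; 5 concentrations. Endpoints by linear interpolation between flanking doses. Not reached: highest tested concentration assigned. GI50 is the concentration that inhibits growth by half. TGI: total growth inhibition.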
# System: MALME-3M melanoma
# Test: NCI-60 cell line screen, 48 h
Compound,TGI [µM],GI50 [µM]
[N-]=[N+]=C1C(=O)NN=C1c1ccccc1,> 100,–
COc1ccc2c3c([nH]c2c1[N+](=O)[O-])C(C)N(C)CC3 (stereo not drawn),> 100,–
CCOC(=O)N[C@@H]1C(CC(=O)OC)O[C@H]2OC(C)(C)O[C@H]21 (stereo partly drawn),> 100,–
Cc1cc(NC(=S)SCc2ccc(F)cc2)c([N+](=O)[O-])cc1C,77.7,–
C=C(C)CCN[Si](c1ccccc1)(c1ccccc1)C(C)(C)C,36.7,–
CC12OC(C(=O)C13CC3)C1C(=O)c3ccc4c(ccc5ccccc54)c3C(=O)C12 (stereo not drawn),56.6,14.2
Cc1cc2ncnn2cc1Nc1ncc2c(n1)n(C1CCOCC1)c(=O)n2C,29.3,2.49
CN(Cc1ccccc1)C(=O)c1ccccc1C(=O)O,> 100,–
CNC(=S)/N=C(\N)N(C)C,> 100,–
CC(=O)C1Cn2c(nc3ccccc32)C[Se]1 (stereo not drawn),5.83,–

# System: SK-MEL-2 melanoma
# Test: NCI-60 cell line screen, 48 h
Compound,GI50 [µM],TGI [µM]
CC1(C)C(=O)/C(=C\c2cccnc2)C[C@]2(C)[C@H]3CC[C@@H]4[C@H]5[C@H](C(=O)/C=C/c6cccnc6)CC[C@]5(C(=O)O)CC[C@@]4(C)[C@]3(C)CC[C@@H]12,2.54,6.66
COc1cc2ncnc(-n3ncc4cc(NC(=O)Nc5ccccc5)ccc43)c2cc1OC,1.34,3.51
Cn1cc(C2(C)CC(C)(C)c3c2n(C)c2ccccc32)c2ccccc21 (stereo not drawn),–,> 100
COc1ccc(C(=O)c2cc(OC)c(OC)c(OC)c2)cc1/C=C/C(=O)c1ccc(F)cc1,9.89,38.2
COC(=O)C(Cc1nc2ccccc2[nH]c1=O)C(NO)C(=O)Nc1c(Cl)cc([N+](=O)[O-])cc1Cl (stereo not drawn),–,82.2
COC(=O)C(CC(=O)Nc1ccc(C)cc1)C(=O)C(=O)Nc1c(C(C)C)cccc1C(C)C (stereo not drawn),–,> 100
CCOC(=O)C(=O)Nc1ccccc1CC,–,> 100
CN1CCc2nc(N)nc(-c3nc(N)nc4c3CN(C)CC4)c2C1,–,> 100
COc1ccc(-c2cc(-c3cc(C)cc(Br)c3O)no2)cc1,–,75
COc1c(C(=O)/C=C/c2ccccc2)c(O)cc2occc12,12.4,25.2
CCCN(CCC)C(=O)c1c([N+](=O)[O-])cc(C(F)(F)F)cc1[N+](=O)[O-],–,> 100
c1ccc(C2N3CCCCC3[C@@H]3c4[nH]c5ccccc5c4CCN23)nc1 (stereo partly drawn),–,> 100
C=CCCCCC/C=C\[C@@H](O)C#CC#C/C=C/CO,> 100,> 100
COc1ccc(CN2CC(C)(C)C2=O)c(OC)c1,–,> 100
Nc1ccccc1/C(O)=C1/CCOC1=O,–,> 100
CCCCNC1CCCCC[C@H]1O (stereo partly drawn),–,> 100
[N-]=[N+]=C1C(=O)NN=C1c1ccccc1,–,> 100
COc1ccc2c3c([nH]c2c1[N+](=O)[O-])C(C)N(C)CC3 (stereo not drawn),–,> 100
CCOC(=O)N[C@@H]1C(CC(=O)OC)O[C@H]2OC(C)(C)O[C@H]21 (stereo partly drawn),–,> 100
C=C(C)CCN[Si](c1ccccc1)(c1ccccc1)C(C)(C)C,–,29.2
CC12OC(C(=O)C13CC3)C1C(=O)c3ccc4c(ccc5ccccc54)c3C(=O)C12 (stereo not drawn),53.1,> 100
Cc1cc2ncnn2cc1Nc1ncc2c(n1)n(C1CCOCC1)c(=O)n2C,12.2,71.5
CN(Cc1ccccc1)C(=O)c1ccccc1C(=O)O,–,> 100
COC(=O)Nc1nc2ccc(C3(c4ccc(F)cc4)OCCO3)cc2[nH]1,0.427,> 100
c1cnn(CN(Cn2cccn2)Cn2cccn2)c1,–,> 100

# System: TK-10 renal
# Test: NCI-60 cell line screen, 48 h
Compound,GI50 [µM],TGI [µM]
CC1(C)C(=O)/C(=C\c2cccnc2)C[C@]2(C)[C@H]3CC[C@@H]4[C@H]5[C@H](C(=O)/C=C/c6cccnc6)CC[C@]5(C(=O)O)CC[C@@]4(C)[C@]3(C)CC[C@@H]12,3.57,10.9
COc1cc2ncnc(-n3ncc4cc(NC(=O)Nc5ccccc5)ccc43)c2cc1OC,0.724,2.56
Cn1cc(C2(C)CC(C)(C)c3c2n(C)c2ccccc32)c2ccccc21 (stereo not drawn),–,> 100
COc1ccc(C(=O)c2cc(OC)c(OC)c(OC)c2)cc1/C=C/C(=O)c1ccc(F)cc1,4.43,30.9
COC(=O)C(CC(=O)Nc1ccc(C)cc1)C(=O)C(=O)Nc1c(C(C)C)cccc1C(C)C (stereo not drawn),–,> 100
CCOC(=O)C(=O)Nc1ccccc1CC,–,> 100
CN1CCc2nc(N)nc(-c3nc(N)nc4c3CN(C)CC4)c2C1,–,> 100
COc1ccc(-c2cc(-c3cc(C)cc(Br)c3O)no2)cc1,–,38.5
COc1c(C(=O)/C=C/c2ccccc2)c(O)cc2occc12,11.2,24.8
O=C(N/N=C/c1cc(Br)ccc1O)N/N=C/c1cc(Br)ccc1O,–,> 100
CCCN(CCC)C(=O)c1c([N+](=O)[O-])cc(C(F)(F)F)cc1[N+](=O)[O-],–,> 100
COc1cc2[nH]c3c(c2cc1OC)CCN[C@]31CC[C@]2(CC3c4c(cc(OC)c(O)c42)CCN3C)C[C@H]1OC (stereo partly drawn),–,51.1
c1ccc(C2N3CCCCC3[C@@H]3c4[nH]c5ccccc5c4CCN23)nc1 (stereo partly drawn),–,> 100
C=CCCCCC/C=C\[C@@H](O)C#CC#C/C=C/CO,> 100,> 100
COc1ccc(CN2CC(C)(C)C2=O)c(OC)c1,–,> 100
Nc1ccccc1/C(O)=C1/CCOC1=O,–,> 100
CCCCNC1CCCCC[C@H]1O (stereo partly drawn),–,> 100
[N-]=[N+]=C1C(=O)NN=C1c1ccccc1,–,> 100
COc1ccc2c3c([nH]c2c1[N+](=O)[O-])C(C)N(C)CC3 (stereo not drawn),–,> 100
Cc1cc(NC(=S)SCc2ccc(F)cc2)c([N+](=O)[O-])cc1C,–,65.4
C=C(C)CCN[Si](c1ccccc1)(c1ccccc1)C(C)(C)C,–,68.3
CC12OC(C(=O)C13CC3)C1C(=O)c3ccc4c(ccc5ccccc54)c3C(=O)C12 (stereo not drawn),37.1,> 100
CN(Cc1ccccc1)C(=O)c1ccccc1C(=O)O,–,> 100
CNC(=S)/N=C(\N)N(C)C,–,> 100
CC(=O)C1Cn2c(nc3ccccc32)C[Se]1 (stereo not drawn),–,13
COC(=O)Nc1nc2ccc(C3(c4ccc(F)cc4)OCCO3)cc2[nH]1,15.7,> 100
c1cnn(CN(Cn2cccn2)Cn2cccn2)c1,–,> 100

# System: SF-268 CNS
# Test: NCI-60 cell line screen, 48 h
Compound,GI50 [µM],TGI [µM]
CC1(C)C(=O)/C(=C\c2cccnc2)C[C@]2(C)[C@H]3CC[C@@H]4[C@H]5[C@H](C(=O)/C=C/c6cccnc6)CC[C@]5(C(=O)O)CC[C@@]4(C)[C@]3(C)CC[C@@H]12,2.15,5.46
COc1cc2ncnc(-n3ncc4cc(NC(=O)Nc5ccccc5)ccc43)c2cc1OC,1.55,11.2
